Here are results for 22 molecules from patent US5128346A, “Derivatives of D-glutamic acid and D-aspartic acid” (priority 1990, dated 1992).

In one assay the target is T1, Type-B CCK receptor (Cavia porcellus, UniProt H0VZC5).
T1 construct: cortex and pancreas were removed and rinsed with ice cold saline; from tissue; host or cells: guinea pig cerebral cortex, membranes
T1 sequence (H0VZC5 1-426): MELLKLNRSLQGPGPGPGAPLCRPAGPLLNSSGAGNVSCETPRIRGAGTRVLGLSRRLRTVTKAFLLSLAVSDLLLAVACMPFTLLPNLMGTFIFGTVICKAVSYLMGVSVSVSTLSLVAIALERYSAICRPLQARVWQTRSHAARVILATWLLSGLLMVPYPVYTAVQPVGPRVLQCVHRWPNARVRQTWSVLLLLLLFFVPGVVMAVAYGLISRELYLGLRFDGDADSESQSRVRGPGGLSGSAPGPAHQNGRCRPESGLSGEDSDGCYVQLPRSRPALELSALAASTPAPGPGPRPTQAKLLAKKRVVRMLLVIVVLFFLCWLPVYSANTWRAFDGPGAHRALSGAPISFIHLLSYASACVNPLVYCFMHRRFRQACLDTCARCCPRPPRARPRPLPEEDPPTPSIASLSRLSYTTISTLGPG
Kind of assay: Radioligand binding, [^125 I]-BH-CCK8, Type-B CCK receptor (cerebral cortical membranes). Set-up: species or system guinea pig. The note with it: for IC50, [^125 I]-BH-CCK, Type-B CCK Receptor: guinea pig cerebral cortical membranes, 30° C., 150 min, IC50 from Hill analysis. The source says: (§1) CCK8 [Asp-Tyr(SO3 H)-Met-Gly-Trp-Met-Asp-Phe-NH2 ] was purchased from Beckman Instruments (Palo Alto, Ca/) and Peptide International (Louisville, Ky.). Chymostatin, L-Try-Gly, puromycin, bestatin, EGTA, HEPES and BSA were purchased from Sigma Chemical Co. (St. Louis, Mo.). [^125 I]BH-CCK8 (specific activity, 2200 Ci/mmol) and Aquasol 2 scintillation cocktail were obtained from New England Nuclear (Boston, Ma.). Male guinea pigs, 250 to 325 g, were obtained from Scientific Small Animal Laboratory and Farm (Arlington Heights, Ill.). Collagenase, 300 units per mg, was purchased from Worthington (Frehold, N.J.)
(§2) 1. Guinea Pig Cerebral Cortical and Pancreatic Membrane Preparations
(§3) Cortical and pancreatic membrances were prepared as described (Lin and Miller; J. Pharmacol. Exp. Ther. 232, 775-780, 1985). In brief, cortex and pancreas were removed and rinsed with ice cold saline. Visible fat and connective tissues were removed from the pancreas. Tissues were weighed and homogenized separately in approximately 25 mL of ice-cold 50 mM Tris-HCl buffer, pH 7.4 at 4° C., with a Brinkman Polytron for 30 sec, setting 7. The homogenates were centrifuged for 10 min at 1075×g and pellets were discarded. The supernatants were saved and centrifuged at 38,730×g for 20 min. The resultant pellets were rehomogenized in 25 mL of 50 mM Tris-HCl buffer with a Teflon-glass homogenizer, 5 up and down strokes. The homogenates were centrifuged again at 38,730×g for 20 min. Pellets were then resuspended in 20 mM HEPES, containing 1 mM EGTA., 118 mM NaCl, 5 mM MgCl2, 100 microM bestatin, 3 microM phosphoramidon, pH 7.4 at 22° C., with a Teflon-glass homogenizer, 15 up and down strokes. Resuspension volume for the cortex was 15-18 mL per gm of original wet weight and 60 mL per gm for the pancreas.
^125 I]Bolton-Hunter CCK8, and test compounds were diluted with HEPES-EGTA-salt buffer (see above) containing 0.5% bovine serum albumin (BSA). To 1 mL Skatron polystyrene tubes were added 25 microliters of test compounds, 25 miroliters of [^125 I]BH-CCK8, and 200 microliters of membrane suspension. The final BSA concentration was 0.1%. The cortical tissues were incubated at 30° C. for 150 min and pancreatic tissues were incubated at 37° C. for 30 min. Incubations were terminated by filtration using Skatron Cell Harvester and SS32 microfiber filter mats. […] IC50 's were determined from the Hill analysis.

The target of the next assay is T2, Type-A CCK receptor (Cavia porcellus, UniProt Q63931).
T2 construct: cortex and pancreas were removed and rinsed with ice cold saline; from tissue; host or cells: guinea pig pancreas, membranes
T2 sequence (Q63931 1-430): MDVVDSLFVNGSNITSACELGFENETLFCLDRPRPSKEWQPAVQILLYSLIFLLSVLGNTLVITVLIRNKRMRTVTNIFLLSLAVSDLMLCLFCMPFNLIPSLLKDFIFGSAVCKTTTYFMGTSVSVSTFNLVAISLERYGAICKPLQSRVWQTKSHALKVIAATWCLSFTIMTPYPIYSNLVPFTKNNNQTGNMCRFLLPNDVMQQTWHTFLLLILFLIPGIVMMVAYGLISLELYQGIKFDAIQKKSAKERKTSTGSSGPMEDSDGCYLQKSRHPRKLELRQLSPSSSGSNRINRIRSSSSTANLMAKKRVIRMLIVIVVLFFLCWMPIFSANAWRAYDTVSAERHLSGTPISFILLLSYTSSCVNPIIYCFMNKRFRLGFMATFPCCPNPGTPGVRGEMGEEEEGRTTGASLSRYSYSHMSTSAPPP
Put plainly: Radioligand binding, [^125 I]-BH-CCK8, Type-A CCK receptor (pancreatic membranes). Set-up: species or system guinea pig.
From the text: as §1, §2, §3
^125 I]Bolton-Hunter CCK8, and test compounds were diluted with HEPES-EGTA-salt buffer (see above) containing 0.5% bovine serum albumin (BSA). To 1 mL Skatron polystyrene tubes were added 25 microliters of test compounds, 25 miroliters of [^125 I]BH-CCK8, and 200 microliters of membrane suspension. The final BSA concentration was 0.1%. The cortical tissues were incubated at 30° C. for 150 min and pancreatic tissues were incubated at 37° C. for 30 min. Incubations were terminated by filtration using Skatron Cell Harvester and SS32 microfiber filter mats. The specific binding of [^125 I]BH-CCK8, defined as the difference between binding in the absence and presence of 1 microM CCK8, was 85 90% of pancreas. IC50 's were determined from the Hill analysis.

For the molecule `CCCCCN(CCCCC)C(=O)[C@@H](CCC(=O)OCc1ccccc1)NC(=O)c1cc2ccccc2[nH]1` [Example 3, N-(2'-Indolylcarbonyl)-(γ-benzyl ester)-R-Glu-di-n-pentylamide], the IC50 came out at 3500 nM on Type-B CCK receptor and 240 nM on Type-A CCK receptor.
For `CCCCCN(CCCCC)C(=O)[C@@H](CCC(=O)O)NC(=O)c1ccc2ccccc2n1` [Example 6, N-(2,-Quinolylcarbonyl)-R-Glu-N^α,N^α -di-n-pentylamide] the same measures were 4200 nM and 62 nM.
As for `CCCCCN(CCCCC)C(=O)[C@@H](CCC(=O)O)NC(=O)c1cnc2ccccc2n1` [Example 10, N-(2'-Quinoxalylcarbonyl)-R-Glu-N^α,N^α -di-n-pentylamide], the IC50 on Type-B CCK receptor worked out at 6500 nM; at Type-A CCK receptor it was 34 nM.
For `CCCCCN(CCCCC)C(=O)[C@@H](CCC(=O)O)NC(=O)C1CNc2ccccc2N1` (stereo partly drawn) [Example 13, N-(1',2',3',4'-Tetrahydroquinoxalyl-2'-carbonyl)-R-Glu-N^α,N^α -di-n-pentylamide] the same measures were 5600 nM and 92 nM.
For `CCCCCN(CCCCC)C(=O)[C@@H](CC(=O)OCc1ccccc1)NC(=O)c1cc2ccccc2[nH]1` [Example 18] the same measures were 2900 nM and 820 nM.
Turning to `CCCCCN(CCCCC)C(=O)[C@@H](CC(=O)O)NC(=O)c1ccc2ccccc2n1` [Example 21, N-(2'-Quinolylcarbonyl)-R-Asp-N^α,N^α -di-n-pentylamide], the IC50 on Type-B CCK receptor was found to be 6600 nM; at Type-A CCK receptor, 210 nM.
Regarding `CCCCCN(CCCCC)C(=O)[C@@H](CCC(N)=O)NC(=O)c1cc2ccccc2[nH]1` [Example 22, N-(2'-Indolylcarbonyl)-R-Gln-N^α,N^α -di-n-pentylamide], the figures for the IC50 at Type-B CCK receptor and on Type-A CCK receptor were 6660 nM and 97 nM, respectively.
Regarding `O=C(CC[C@@H](NC(=O)c1cnc2ccccc2c1)C(=O)NCc1ccccc1)OCc1ccccc1` [Example 25, N-(3'-Quinolylcarbonyl)-(γ-benzyl ester)-R-Glu-benzylamide], the results for the half-maximal inhibitory concentration (IC50) on Type-B CCK receptor and on Type-A CCK receptor were over 10000 nM and 310 nM, respectively.
For `COC(=O)[C@@H](NC(=O)[C@@H](CCC(=O)OCc1ccccc1)NC(=O)c1cc2ccccc2[nH]1)c1ccccc1` [Example 36, Methyl N-(2'-Indolylcarbonyl)-(γ-benzylester)-R-Glutamyl-S-phenylglycinate] the same measures were 6300 nM and 200 nM.
Turning to `COC(=O)[C@@H](NC(=O)[C@@H](CCC(=O)O)NC(=O)c1cc2ccccc2[nH]1)c1ccccc1` [Example 37, Methyl N-(2'-Indolylcarbonyl)-R-Glutamyl-S-phenylglycinate], the “IC50, [^125 I]-BH-CCK, Type-B CCK Receptor” value on Type-B CCK receptor is given as 1-10,000 nM. The same molecule registered a concentration for half-maximal inhibition (IC50) at Type-A CCK receptor of 49 nM.
Consider `O=C(O)CC[C@@H](NC(=O)c1cc2ccccc2[nH]1)C(=O)Nc1ccccc1-c1ccccc1` [Example 38, N-(2'-Indolylcarbonyl)-R-Glu-N^α -(2'-biphenylamide)], for which the IC50 at Type-B CCK receptor came to 7100 nM; on Type-A CCK receptor it was 900 nM.
For `O=C(O)CC[C@@H](NC(=O)c1cc2ccccc2[nH]1)C(=O)NC12CC3CC(CC(C3)C1)C2` [Example 54, N-(2'-Indolylcarbonyl)-R-Glu-N^α -(1,-adamantyl)amide] the same measures were over 10000 nM and 660 nM.
Turning to `CCCCCN(CCCCC)C(=O)[C@@H](CCC(=O)O)NC(=O)c1cc2ccccc2n1C` [Example 60, N-(N^i -Methyl-2,-Indolylcarbonyl)-R-Glu-N^α,N^α -dipentylamide], the “IC50, [^125 I]-BH-CCK, Type-B CCK Receptor” value on Type-B CCK receptor is listed as 1-10,000 nM. This molecule yielded a half-inhibitory concentration (IC50) on Type-A CCK receptor of 34 nM.
As for `CCOC(=O)CN(Cc1ccccc1)C(=O)[C@@H](CCC(=O)OCc1ccccc1)NC(=O)c1cnc2ccccc2c1` [Example 82, Ethyl N-(3,-Quinolylcarbonyl)-(γ-benzylester)-R-Glutamyl (N-benzyl)glycinate], the values for the IC50 at Type-B CCK receptor and at Type-A CCK receptor were 10000 nM and 250 nM, respectively.
Turning to `CCOC(=O)CN(Cc1ccccc1)C(=O)[C@@H](CCC(=O)O)NC(=O)c1cnc2ccccc2c1` [Example 83, Ethyl N-(3'-Quinolylcarbonyl)-R-Glutamyl(N-benzyl)glycinate], the IC50 on Type-B CCK receptor was over 10000 nM; on Type-A CCK receptor it was 44 nM.
On the same counts, the results for `CCOC(=O)CN(Cc1ccccc1)C(=O)[C@@H](CCC(=O)OCc1ccccc1)NC(=O)c1cc(O)c2cccc(O)c2n1` [Example 84] are 620 nM and 28 nM.
On the same counts, the results for `CCOC(=O)CN(Cc1ccccc1)C(=O)[C@@H](CCC(=O)O)NC(=O)c1cc(O)c2cccc(O)c2n1` [Example 85, Ethyl N-(4',8'-Dihydroxyquinolyl-2-carbonyl)-R-Glutamyl (N-benzyl)glycinate] are under 10000 nM and 100 nM.
On the same counts, the results for `COC(=O)[C@@H](NC(=O)[C@@H](CCC(=O)O)NC(=O)c1ccc2ccccc2c1)c1ccccc1` [Example 89, Methyl N-(2 '-Naphthoyl)-R-Glutamyl-S-phenylglycinate] are over 10000 nM and 140 nM.
For `COC(=O)[C@@H](NC(=O)[C@@H](CCC(=O)O)NC(=O)c1cnc2ccccc2c1)c1ccccc1` [Example 91, Methyl N-(3,-Quinolylcarbonyl)-R-Glutamyl-S-phenylglycinate], the values for the IC50 at Type-B CCK receptor and on Type-A CCK receptor were over 10000 nM and 68 nM, respectively.
For `COC(=O)[C@@H](NC(=O)[C@@H](CCC(=O)O)NC(=O)c1cc(O)c2cccc(O)c2n1)c1ccccc1` [Example 93, Methyl N-(4',8'-Dihydroxyquinolyl-2-carbonyl)-R-Glutamyl-S-phenylglycinate] the same measures were at most 10000 nM and 100 nM.
On the same counts, the results for `CCOC(=O)CN(CC(=O)OCC)C(=O)[C@@H](CCC(=O)OCc1ccccc1)NC(=O)c1cnc2ccccc2c1` [Example 106, N-(3'-Quinolylcarbonyl)-(γ-Benzyl ester)-R-Glutamyl-bis(carboethoxymethyl)amide] are about 10000 nM and 93 nM.
On the same counts, the results for `CCOC(=O)CN(CC(=O)OCC)C(=O)[C@@H](CCC(=O)O)NC(=O)c1cnc2ccccc2c1` [Example 107, N-(3,-Quinolylcarbonyl)-R-Glutamyl-bis(carboethoxymethyl)amide] are over 10000 nM and 110 nM.
